Source: patent US11718620B2, “Method for treating a cancer mediated by abnormality of multi-kinases” (TransThera Sciences (Nanjing), Inc., priority 2016, dated 2023)
Read-outs that look alike come from different tables or passages of the source.

Tests used:
[1] = test system: human acute granulocytic leukemia Kasumi-1 cells xenograft; experiment: In vivo pharmacodynamic study, subcutaneous xenograft tumor model; set-up: species or system CB17 SCID mice; settings: for Tumor Weight: QD × 18, Kasumi-1 tumor-bearing mice; for Tumor Growth Inhibition rate (TGI): QD × 18, by tumor weight
Protocol: (§1) Test sample: crystal form I prepared in Example 17 (crystal form I of compound 29)
Animals, Cells, Reagents & Instruments: Kasumi-1 cells, derived from ATCC.
CB17 SCID mice, 6-8 weeks, female, available from Shanghai Lingchang Biotechnology Co., Ltd.
Kasumi-1 cells were cultured in vitro in a single layer, and culture conditions were as follows: RPMI1640 medium supplemented with 10% heat-inactivated fetal bovine serum and 1% penicillin-streptomycin double antibody, 37° C., and 5% CO2. Passage was achieved two to three times a week. When the cells were in the exponential growth phase, the cells were harvested, counted, and inoculated.
0.2 mL of cell suspension containing about 1×10^7 Kasumi-1 cells (cell suspended in 1:1 base RPMI 1640 medium and nutrient gel) was subcutaneously inoculated into the right back of female CB17 SCID mice. Grouping administration was started when the average tumor volume reached 100-150 mm^3. Grouping method: Animals were weighed prior to administration and tumor volume was measured. Grouping was performed according to the tumor volume, with 8 mice per group.
Health and death of the animals were monitored daily. Body weight was measured twice a week, and samples were collected after the last dose and the tumor weight was weighed.

[2] = PK evaluation in beagle dogs; type: in vivo
Protocol: as §1
(1) Administration to animals: All animals were fasted for more than 12 h before administration, and fed at 4 h after the administration. […] Beagle dogs were given intravenously 1 mg/kg of crystal form I of compound 29 (prescription: 10% DMA+20% (30% Solutol)+70% saline) in a single dose, and blood was collected at 0 h before administration and 0.083, 0.25, 0.50, 1.0, 2.0, 4.0, 6.0, 8.0, 12 and 24 h after administration. Beagle dogs were given orally 2 mg/kg of crystal form I of compound 29 (Prescription: 10% DMA+20% (30% Solutol)+70% saline) in a single dose, and blood was collected at 0 h before administration and at 0.25, 0.50, 1.0, 2.0, 4.0, 6.0, 8.0, 12, and 24 h after administration, and 200 μL blood was taken through a small saphenous vein, and placed in a dried EDTA-K2 test tube. (2) Preparation of plasma: The whole blood sample was separated by low-speed centrifugation (1800 g, 5 min, 4° C.) (the whole blood was collected and placed in an ice bath, and plasma separation should be completed within 30 min) to give plasma, and the separated plasma was stored in a refrigerator at […] for analysis.
The sample to be tested (−80° C.) was taken from the refrigerator, thawed naturally at room temperature and vortexed for 5 min; 20 μL of plasma sample was accurately aspirated into a 1.5 mL centrifuge tube; added with 200 μL of internal standard working solution at a concentration of 50 ng/mL, and mixed well; after vortexed for 5 min, the mixture was centrifuged for 5 min (12000 rpm); 50 μL of supernatant was accurately aspirated into 96-well plates pre-filled with 150 μL/well of water; vortexed for 5 min, LC-MS/MS determination was performed in an injection volume of 15 μL.
The concentration of test sample was output using Analyst 1.6.1 from AB SCIEX.

KDR(VEGFR2) [3] = target: T1, KDR(VEGFR2) (Homo sapiens, UniProt P35968); experiment: KDR enzymatic activity test, FAM-labeled peptide, Caliper; type: biochemical; settings: FAM-labeled peptide substrate, read-out: Kinase-inhibiting activity IC50 KDR(VEGFR2)
T1 sequence (P35968 20-1356): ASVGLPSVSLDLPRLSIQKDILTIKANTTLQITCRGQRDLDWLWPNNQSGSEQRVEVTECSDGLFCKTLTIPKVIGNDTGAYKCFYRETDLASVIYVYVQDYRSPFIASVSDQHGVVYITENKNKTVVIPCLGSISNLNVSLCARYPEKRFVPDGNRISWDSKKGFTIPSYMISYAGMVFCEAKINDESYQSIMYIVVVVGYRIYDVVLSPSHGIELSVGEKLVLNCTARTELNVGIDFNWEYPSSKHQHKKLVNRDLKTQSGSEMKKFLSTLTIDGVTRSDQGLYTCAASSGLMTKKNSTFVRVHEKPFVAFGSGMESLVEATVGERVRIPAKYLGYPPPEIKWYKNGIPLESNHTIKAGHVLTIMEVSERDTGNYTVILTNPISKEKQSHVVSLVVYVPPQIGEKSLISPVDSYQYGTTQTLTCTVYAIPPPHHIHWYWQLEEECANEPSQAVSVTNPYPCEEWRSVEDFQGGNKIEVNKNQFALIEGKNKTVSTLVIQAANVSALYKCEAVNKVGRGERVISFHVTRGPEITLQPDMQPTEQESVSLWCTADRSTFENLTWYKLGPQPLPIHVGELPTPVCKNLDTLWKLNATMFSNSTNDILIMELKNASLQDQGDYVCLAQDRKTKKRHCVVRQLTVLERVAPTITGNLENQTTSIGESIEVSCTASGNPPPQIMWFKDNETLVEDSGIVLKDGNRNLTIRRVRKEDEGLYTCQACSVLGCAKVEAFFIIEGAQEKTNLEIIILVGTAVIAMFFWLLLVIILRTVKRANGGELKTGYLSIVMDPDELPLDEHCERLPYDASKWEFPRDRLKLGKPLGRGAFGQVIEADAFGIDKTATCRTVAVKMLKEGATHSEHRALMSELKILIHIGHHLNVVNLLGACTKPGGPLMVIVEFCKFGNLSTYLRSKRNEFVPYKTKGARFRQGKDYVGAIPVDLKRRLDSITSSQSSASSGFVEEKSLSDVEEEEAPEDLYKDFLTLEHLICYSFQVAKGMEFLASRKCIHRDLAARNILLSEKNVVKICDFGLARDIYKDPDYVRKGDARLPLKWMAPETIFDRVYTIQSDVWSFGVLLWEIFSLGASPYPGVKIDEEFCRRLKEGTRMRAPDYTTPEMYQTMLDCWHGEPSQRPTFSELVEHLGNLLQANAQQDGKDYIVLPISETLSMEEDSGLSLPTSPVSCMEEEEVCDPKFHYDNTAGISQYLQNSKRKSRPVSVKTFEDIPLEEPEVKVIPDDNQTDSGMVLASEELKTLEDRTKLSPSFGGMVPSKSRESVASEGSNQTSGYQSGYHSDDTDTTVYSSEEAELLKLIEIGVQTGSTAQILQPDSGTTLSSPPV
Protocol: (§2) Test samples: Compounds in the present invention (the sequence numbers and structures thereof are shown in Table 1), dilution concentration: 0.03 μM-3 μM, a total of 10 concentration gradients.
(§3) Test method: enzymatic activity tests of Aurora kinase (including Aurora A and Aurora B) and VEGFR2 (KDR) were performed using a multi-function microplate reader.
(§4) a) 96-well plates, 10 dose groups, 3-fold serial dilutions, each well was added with DMSO, maximal concentration of 500 μM (50-fold compound).
(§5) b) 384-well plates, diluted with 1× kinase buffer (50 mM HEPES, pH 7.5; 0.0015% Brij-35; 2 mM DTT), each well containing 5× compound dissolved in 5 μL of 10% DMSO. Each well of the negative control contains 5 μL of 1× kinase buffer containing 10% DMSO.
(§6) Aurora A, Aurora B and KDR were dissolved in 1× kinase buffer and prepared as a 2.5× enzyme solution. After the compound in various concentrations was reacted with 2.5× enzyme solution at room temperature for 10 min, the FAM-labeled peptide substrate and ATP were added to initiate reaction. After incubation for 40 minutes, 25 μL of terminal solution (100 mM HEPES, pH 7.5; 0.015% Brij-35; 0.2% Coating Reagent #3; 50 mM EDTA) was added to stop the reaction, and the final data were read by Caliper.

Aurora A [4] = target: T2, Aurora A (Homo sapiens, UniProt O14965); experiment: Aurora A enzymatic activity test, FAM-labeled peptide, Caliper; type: biochemical; settings: FAM-labeled peptide substrate, read-out: Kinase-inhibiting activity IC50 Aurora A
T2 sequence (O14965 1-403): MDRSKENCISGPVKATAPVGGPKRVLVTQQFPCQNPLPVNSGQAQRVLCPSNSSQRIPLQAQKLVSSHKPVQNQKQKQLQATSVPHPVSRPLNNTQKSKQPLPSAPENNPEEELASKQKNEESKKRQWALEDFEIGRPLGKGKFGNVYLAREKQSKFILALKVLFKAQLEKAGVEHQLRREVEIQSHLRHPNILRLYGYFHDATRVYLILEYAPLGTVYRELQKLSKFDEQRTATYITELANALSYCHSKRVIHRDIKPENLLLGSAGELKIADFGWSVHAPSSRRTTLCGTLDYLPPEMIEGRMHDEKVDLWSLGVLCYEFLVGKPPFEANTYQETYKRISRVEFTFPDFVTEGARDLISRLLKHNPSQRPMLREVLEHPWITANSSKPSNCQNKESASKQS
Protocol: as §2, §3, §4, §5, §6

Aurora B [5] = target: T3, Aurora B (Homo sapiens, UniProt Q96GD4); experiment: Aurora B enzymatic activity test, FAM-labeled peptide, Caliper; type: biochemical; settings: FAM-labeled peptide substrate, read-out: Kinase-inhibiting activity IC50 Aurora B
T3 sequence (Q96GD4 whole entry): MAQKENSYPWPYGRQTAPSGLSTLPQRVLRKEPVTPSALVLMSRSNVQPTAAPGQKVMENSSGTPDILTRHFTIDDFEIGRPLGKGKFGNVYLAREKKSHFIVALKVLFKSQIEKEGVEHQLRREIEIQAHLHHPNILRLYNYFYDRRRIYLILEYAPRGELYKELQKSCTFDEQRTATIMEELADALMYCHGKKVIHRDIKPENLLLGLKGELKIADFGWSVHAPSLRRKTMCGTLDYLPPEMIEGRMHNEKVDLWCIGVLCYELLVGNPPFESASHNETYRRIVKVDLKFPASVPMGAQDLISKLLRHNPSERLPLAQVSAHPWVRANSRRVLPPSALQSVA
Protocol: as §2, §3, §4, §5, §6

Aurora B [6] = target: T3, Aurora B; experiment: Aurora B kinase activity test, [γ-33P]-ATP filter membrane; type: biochemical; settings: 40 minutes at room temperature, read-out: Kinase-inhibiting activity IC50 Aurora B
Protocol: (§7) Test samples: compounds 1 to 4 in the present invention (the sequence numbers and structures thereof are shown in Table 1), dilution concentration: 0.03 μM-3 μM, a total of 10 concentration gradients.
as §3
(2) Test for Aurora B Kinase Activity:
Aurora B kinase protein and the compounds were sequentially added to the following reaction system: 8 mM MOPS pH 7.0, 0.2 mM EDTA, 30 μM […], 10 mM magnesium acetate and [γ-^33P]-ATP (radioactive activity was approximately 500 cpm/pmol). Then the above reaction system was added with ATP to start the reaction, and incubated at room temperature for 40 minutes. Then the reaction was terminated by adding a 3% phosphoric acid solution. 10 μL was taken out from the reaction system, and then added dropwise to a P30 filtermat filter membrane, washed three times in 75 mM phosphoric acid solution for 5 minutes, and then washed once with methanol. After the filter was dried, count was performed by a liquid crystal scintillation counter.

Aurora A [7] = target: T2, Aurora A; experiment: Aurora A kinase activity test, [γ-33P]-ATP filter membrane; type: biochemical; settings: 40 minutes at room temperature, read-out: Kinase-inhibiting activity IC50 Aurora A
Protocol: as §7, §3
(1) Test for Aurora a Kinase Activity:
Aurora A kinase protein and the compounds were sequentially added to the following reaction system: 8 mM MOPS pH 7.0, 0.2 mM EDTA, 200 μM LRRASLG (Kemptide), 10 mM magnesium acetate and [γ-^33P]-ATP (radioactive activity was approximately 500 cpm/pmol). Then the above reaction system was added with ATP to start the reaction, and incubated at room temperature for 40 minutes. Then the reaction was terminated by adding a 3% phosphoric acid solution. 10 μL was taken out from the reaction system, and then added dropwise to a P30 filtermat filter membrane, washed three times in 75 mM phosphoric acid solution for 5 minutes, and then washed once with methanol. After the filter membrane was dried, count was performed by a liquid crystal scintillation counter.

KDR(VEGFR2) [8] = target: T1, KDR(VEGFR2); experiment: KDR kinase activity test, [γ-33P]-ATP filter membrane; type: biochemical; settings: 40 minutes at room temperature, read-out: Kinase-inhibiting activity IC50 KDR (VEGFR2)
Protocol: as §7, §3
(3) Test for KDR Kinase Activity:
KDR kinase protein and the compounds were sequentially added to the following reaction system: 8 mM MOPS pH 7.0, 0.2 mM EDTA, 0.33 mg/mL myelin basic protein, 10 mM magnesium acetate and [γ-^33P]-ATP (radioactive activity was approximately 500 cpm/pmol). Then the above reaction system was added with ATP to start the reaction, and incubated at room temperature for 40 minutes. Then the reaction was terminated by adding a 3% phosphoric acid solution. 10 μL was taken out from the reaction system, and then added dropwise to a P30 filtermat filter membrane, washed three times in a 75 mM phosphoric acid solution for 5 minutes, and then washed once with methanol. After the filter was dried, count was performed by a liquid crystal scintillation counter.

[9] = test system: BT-549 breast cancer cells; experiment: Cell proliferation, Cell Titer-Glo; type: cell-based; settings: Homo sapiens, 72 hours, read-out: Cellular inhibitory activity IC50 BT-549
Protocol: (§8) Test method: The effect of compounds on cell proliferation of different cell lines was examined by Cell Titer-Glo method.
(§9) Each cell line was inoculated into a 96-well plate one day in advance, and after overnight incubation, drugs in different concentrations were added to a final concentration of 0-10000 nM, 3-5 folds dilution, for a total of 10 concentration points. After incubation for 72 hours, the mixture was added with Cell titer-Glo reagent equilibrated at room temperature, and shaken to incubation for 10 min, and then allowed to stand at room temperature for 2 min to stabilize the light signal. The multi-function microplate reader was used to read data from each well and analyze it.

[10] = test system: MDA-MB-468 breast cancer cells; experiment: Cell proliferation, Cell Titer-Glo; type: cell-based; settings: Homo sapiens, 72 hours, read-out: Cellular inhibitory activity IC50 MDA-MB-468
Protocol: as §8, §9

[11] = test system: D4475 breast cancer cells; experiment: Cell proliferation, Cell Titer-Glo; type: cell-based; settings: 72 hours, read-out: Cellular inhibitory activity IC50 D4475
Protocol: as §8, §9

A549 Lung cancer cells = experiment: Cell proliferation, Cell Titer-Glo; type: cell-based; settings: Homo sapiens, 72 hours, read-out: Cellular inhibitory activity IC50 A549
Protocol: as §8, §9

[12] = intravenously 1 mg/kg single dose

IC50 (KDR(VEGFR2) [3])	IC50 (Aurora A [4])	IC50 (Aurora B [5])	SMILES	also measured
–	–	–	Cc1[nH]nc2c1N=C(c1ccccc1Cl)c1cnc(N3CCOCC3)cc1N2 [Crystal form I of compound 29, 4-(5-(2-chlorophenyl)-3-methyl-2,10-dihydropyrazolo[4,3-b]pyrido[4,3-e][1,4]diazepin-8-yl) morpholine]	Tumor Weight ([1]; 5 mg/kg po): 0.435 ± 0.091 g; Tumor Growth Inhibition rate (TGI) ([1]; 5 mg/kg po): 69.58%; Tumor Weight ([1]; 15 mg/kg po): 0.100 ± 0.014 g; Tumor Growth Inhibition rate (TGI) ([1]; 15 mg/kg po): 92.98%; inhibitory effect on the Kasumi-1 cell xenograft model ([1]; result in words): significant inhibitory effect; AUC(0-inf) ([2]; dog, plasma, iv, intravenously 1 mg/kg single dose, read-out: AUCinf iv): 4650 ng·h/mL; Tmax ([2]; dog, plasma, po, orally 2 mg/kg single dose): 2 h; AUC(0-inf) ([2]; dog, plasma, po, orally 2 mg/kg single dose, read-out: AUCinf po): 8600 ng·h/mL; Cl_obs iv [2, 12]: 3.67 mL/min/kg; Vz_obs iv [2, 12]: 2.35 L/kg; tz1/2 iv [2, 12]: 7.64 h; tZl1/2po ([2]; orally 2 mg/kg single dose): 6.87 h
1.8 nM	2.1 nM	5.8 nM	Cc1[nH]nc2c1N=C(c1ccccc1Cl)c1cnc(N3CCN(C)C(=O)C3)cc1N2 [Compound 43]	–
1.8 nM	1.4 nM	5.2 nM	Cc1[nH]nc2c1N=C(c1ccccc1Cl)c1cnc(N3CC4(COC4)C3)cc1N2 [Compound 48]	–
–	–	–	Cc1[nH]nc2c1N=C(c1ccccc1Cl)c1cnc(C3CC3)cc1N2 [Compound 2]	IC50 (Aurora B [6]): 4 nM; IC50 (Aurora A [7]): < 3 nM; IC50 (KDR(VEGFR2) [8]): 593 nM
4.2 nM	18 nM	16 nM	Cc1[nH]nc2c1N=C(c1ccccc1Cl)c1cnc(CN3CCNCC3)cc1N2 [Compound 38]	–
–	–	–	COc1cc2c(cn1)C(c1ccccc1Cl)=Nc1c(n[nH]c1C)N2 [Compound 3]	IC50 (Aurora B [6]): 8 nM; IC50 (Aurora A [7]): 4 nM; IC50 (KDR(VEGFR2) [8]): 876 nM
0.53 nM	0.41 nM	3.1 nM	Cc1[nH]nc2c1N=C(c1ccccc1Cl)c1cnc(N3CC4COCC4C3)cc1N2 (stereo not drawn) [Compound 46]	IC50 [9]: 83 nM; IC50 [10]: 319 nM; IC50 [11]: 48 nM; IC50 (A549 Lung cancer cells): 211 nM
9.7 nM	3 nM	1.7 nM	Cc1[nH]nc2c1N=C(c1ccccc1Cl)c1cnc(N3CCN(C)[C@H](C)C3)cc1N2 [Compound 42]	–
0.3 nM	1 nM	4.7 nM	Cc1[nH]nc2c1N=C(c1ccccc1Cl)c1cnc(N3CC4CC3CO4)cc1N2 (stereo not drawn) [Compound 45]	IC50 [9]: 186 nM; IC50 [10]: 491 nM; IC50 [11]: 171 nM; IC50 (A549 Lung cancer cells): 507 nM
2.9 nM	2.7 nM	11 nM	Cc1[nH]nc2c1N=C(c1ccccc1Cl)c1cnc(N3CCO[C@H](C)C3)cc1N2 (stereo in doubt) [Compound 40]	–
1.7 nM	5.4 nM	8.8 nM	Cc1[nH]nc2c1N=C(c1ccccc1Cl)c1cnc(N3CCNCC3)cc1N2 [Compound 37]	–
7.9 nM	15 nM	24 nM	Cc1[nH]nc2c1N=C(c1ccccc1Cl)c1cnc(N3C[C@@H](C)N(C)[C@@H](C)C3)cc1N2 [Compound 41]	–
1.5 nM	0.82 nM	6.8 nM	Cc1[nH]nc2c1N=C(c1ccccc1Cl)c1cnc(N3CCN(C4CC4)CC3)cc1N2 [Compound 44]	IC50 [9]: 249 nM; IC50 [10]: 984 nM; IC50 [11]: 101 nM; IC50 (A549 Lung cancer cells): 358 nM
